In US12492173B2, “Herbicidal substituted N-tetrazolyl aryl carboxamides” (Bayer Aktiengesellschaft, priority 2019, dated 2025):

Columns and labels:
Assay type in all cases: in vivo
Conditions in all cases: comparative experiment, 20 g of a.i./ha
Pharbitis purpurea = test: Pre-emergence herbicidal action, PHBPU
Procedure, shortened: (§1)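 Herbicidal activity is expressed in percent, scored by eye after a 3-week greenhouse period, with 0% matching untreated plants and 100% meaning death. Compounds, as wettable powders or emulsion concentrates, are applied pre-emergence to the covering soil.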

Matricaria inodora = test: Pre-emergence herbicidal action, MATIN; design: key to Herbicidal action against MATIN: % activity: 100 = plants have died, 0 = like control plants
Procedure, shortened: as §1

Avena fatua = test: Pre-emergence herbicidal action, AVEFA
Description: 1. Pre-Emergence Herbicidal Action Against Harmful Plants Seeds of monocotyledonous and dicotyledonous weed plants and crop plants are laid out in sandy loam soil in wood-fiber pots and covered with soil. The compounds of the invention, formulated in the form of wettable powders (WP) or as emulsion concentrates (EC), are then applied to the surface of the covering soil in the form of an aqueous suspension or emulsion at a water application rate equating to 600 to 800 l/ha, with addition of 0.2% wetting agent. After the treatment, the pots are placed in a greenhouse and kept under good growth conditions for the trial plants. The damage to the test plants is scored visually after a test period of 3 weeks by comparison with untreated controls (herbicidal activity in percent (%): 100% activity=the plants have died, 0% activity=like control plants). […] The tables below illustrate, in an exemplary manner, the post-emergence herbicidal action of the compounds according to the invention, the herbicidal activity being stated in percent. [table] In the experiments that follow, herbicidal action of numerous inventive compounds and the known compounds that are structurally closest from D1 (WO 2012/028579 A1) and D2 (WO 2018/202535 A1) were compared under the above-specified conditions by the pre-emergence and post-emergence method. […]

Veronica persica = test: Pre-emergence herbicidal action, VERPE; design: key to Herbicidal action against VERPE: % activity: 100 = plants have died, 0 = like control plants
Procedure, shortened: as §1

Stellaria media = test: Pre-emergence herbicidal action, STEME; design: key to Herbicidal action against STEME: % activity: 100 = plants have died, 0 = like control plants
Procedure, shortened: as §1

Viola tricolor = test: Pre-emergence herbicidal action, VIOTR; design: key to Herbicidal action against VIOTR: % activity: 100 = plants have died, 0 = like control plants
Procedure, shortened: as §1

Compound: CSCc1c(Cl)ccc(C(=O)Nc2nnnn2C)c1C [Example 1-46]
- Herbicidal action against PHBPU (Pharbitis purpurea): 40
- Herbicidal action against MATIN (Matricaria inodora): 80
- Herbicidal action against AVEFA (Avena fatua): 20
- Herbicidal action against VERPE (Veronica persica): 50
- Herbicidal action against STEME (Stellaria media): 90
- Herbicidal action against VIOTR (Viola tricolor): 70
